Source: patent US20230081426A1, “COMPOUNDS AND METHODS FOR KRAS MODULATION AND INDICATIONS THEREFOR” (Plexxikon Inc., priority 2020, published 2023)

Assays:
[1] = biological target: T1, G12D-mutant human KRAS (amino acid residues 1-188) (Homo sapiens, UniProt P01116, G12D); assay: KRAS Binding Disruption Assay (AlphaScreen; biotinylated KRpep-2d analogue or RAF1-RBD), G12D; details: KRAS G12D; geometric mean; read-out: KRAS GMean IC50 (uM) MUTATION: G12D
T1 construct: G12D or G12C-mutant human KRAS (amino acid residues 1-188) with FLAG tag; made in house; host or cells: E. coli
Procedure, shortened: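 AlphaScreen readout: signal falls as compound displaces biotinylated KRpep-2d analogue or RAF1-RBD from mutant KRAS. Both partners at 5-20 nM, 1 h binding at 25° C, then 10 μg/mL Anti-Flag acceptor and streptavidin donor beads for 1 h. IC50 by nonlinear regression of % inhibition.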

[2] = biological target: T2, G12V-mutant human KRAS (amino acid residues 1-188) (Homo sapiens, UniProt P01116, G12V); assay: KRAS Binding Competition Assay (AlphaScreen; biotinylated KRpep-2d analogue), G12V; details: geometric mean, read-out: KRAS GMean IC50 (uM) MUTATION: G12V
T2 construct: G12V-mutant human KRAS (amino acid residues 1-188) with FLAG tag was purified from E. coli; made in house; host or cells: E. coli

## O=C(N[C@@H]1CCCNC1)N1[C@@H]2CC[C@H]1CN(c1nc(OCC34CCCN3CCC4)nc3cc(-c4cc(O)cc5ccccc45)ccc13)C2 [P-0143, (1R,5S)-3-(7-(3-hydroxynaphthalen-1-yl)-2-((tetrahydro-1H-pyrrolizin-7a(5H)-yl)methoxy)quinazolin-4-yl)-N-((R)-piperidin-3-yl)-3,8-diazabicyclo[3.2.1]octane-8-carboxamide]
[1]
  IC50: 0.0001 to 10 µM
[2]
  IC50: 0.0001 to 10 µM

## CN1CCC[C@H]1COc1nc(N2C[C@H]3CC[C@@H](C2)N3CC(N)=O)c2ccc(-c3cc(O)cc4ccccc34)c(F)c2n1 [P-0144, 2-((1R,5S)-3-(8-fluoro-7-(3-hydroxynaphthalen-1-yl)-2-(((S)-1-methylpyrrolidin-2-yl)methoxy)quinazolin-4-yl)-3,8-diazabicyclo[3.2.1]octan-8-yl)acetamide]
[1]
  IC50: 0.0001 to 10 µM
[2]
  IC50: 0.0001 to 10 µM

## CN1CCC[C@H]1COc1nc(N2[C@@H]3CC[C@H]2CN(CCO)C3)c2ccc(-c3cc(O)cc4ccccc34)cc2n1 [P-0145, 4-(4-((1R,5S)-3-(2-hydroxyethyl)-3,8-diazabicyclo[3.2.1]octan-8-yl)-2-(((S)-1-methylpyrrolidin-2-yl)methoxy)quinazolin-7-yl)naphthalen-2-ol]
[1]
  IC50: 10 to 100 µM
[2]
  IC50: 10 to 100 µM

## CN(C)CCCC(=O)N1[C@@H]2CC[C@H]1CN(c1nc(OCC34CCCN3CCC4)nc3c(F)c(-c4cc(O)cc5ccccc45)ccc13)C2 [P-0146, 4-(dimethylamino)-1-((1R,5S)-3-(8-fluoro-7-(3-hydroxynaphthalen-1-yl)-2-((tetrahydro-1H-pyrrolizin-7a(5H)-yl)methoxy)quinazolin-4-yl)-3,8-diazabicyclo[3.2.1]octan-8-yl)butan-1-one]
[1]
  IC50: 0.0001 to 10 µM
[2]
  IC50: 0.0001 to 10 µM

## O=C(C1C2CCC1CNC2)N1[C@@H]2CC[C@H]1CN(c1nc(OCC34CCCN3CCC4)nc3c(F)c(-c4cc(O)cc5ccccc45)ccc13)C2 (stereo partly drawn) [P-0147, (3-azabicyclo[3.2.1]octan-8-yl)((1R,5S)-3-(8-fluoro-7-(3-hydroxynaphthalen-1-yl)-2-((tetrahydro-1H-pyrrolizin-7a(5H)-yl)methoxy)quinazolin-4-yl)-3,8-diazabicyclo[3.2.1]octan-8-yl)methanone]
[1]
  IC50: 0.0001 to 10 µM
[2]
  IC50: 0.0001 to 10 µM

## CN1CCC[C@H]1COc1nc(N2[C@@H]3CC[C@H]2CNC3)c2ccc(-c3cccc(C(N)=O)n3)cc2n1 [P-0148, 6-(4-((1R,5S)-3,8-diazabicyclo[3.2.1]octan-8-yl)-2-(((S)-1-methylpyrrolidin-2-yl)methoxy)quinazolin-7-yl)picolinamide]
[1]
  IC50: 100 to 1000 µM
[2]
  IC50: 10 to 100 µM

## CN1CCC(CC(=O)N2[C@@H]3CC[C@H]2CN(c2nc(OCC45CCCN4CCC5)nc4c(F)c(-c5cc(O)cc6ccccc56)ccc24)C3)CC1 [P-0149, 1-((1R,5S)-3-(8-fluoro-7-(3-hydroxynaphthalen-1-yl)-2-((tetrahydro-1H-pyrrolizin-7a(5H)-yl)methoxy)quinazolin-4-yl)-3,8-diazabicyclo[3.2.1]octan-8-yl)-2-(1-methylpiperidin-4-yl)ethan-1-one]
[1]
  IC50: 0.0001 to 10 µM
[2]
  IC50: 0.0001 to 10 µM

## O=C(CCCN1CCCCC1)N1[C@@H]2CC[C@H]1CN(c1nc(OCC34CCCN3CCC4)nc3c(F)c(-c4cc(O)cc5ccccc45)ccc13)C2 [P-0150, 1-((1R,5S)-3-(8-fluoro-7-(3-hydroxynaphthalen-1-yl)-2-((tetrahydro-1H-pyrrolizin-7a(5H)-yl)methoxy)quinazolin-4-yl)-3,8-diazabicyclo[3.2.1]octan-8-yl)-4-(piperidin-1-yl)butan-1-one]
[1]
  IC50: 0.0001 to 10 µM
[2]
  IC50: 0.0001 to 10 µM

## CN1CCC[C@H]1COc1nc(N2C[C@H]3CC[C@@H](C2)N3)c2ccc(-c3ccccc3)cc2n1 [P-0151, 4-((1R,5S)-3,8-diazabicyclo[3.2.1]octan-3-yl)-2-(((S)-1-methylpyrrolidin-2-yl)methoxy)-7-phenylquinazoline]
[1]
  IC50: 100 to 1000 µM
[2]
  IC50: 100 to 1000 µM

## Cc1ccc(N)cc1-c1ccc2c(N3C[C@H]4CC[C@@H](C3)N4)nc(OC[C@@H]3CCCN3C)nc2c1 [P-0152, 3-(4-((1R,5S)-3,8-diazabicyclo[3.2.1]octan-3-yl)-2-(((S)-1-methylpyrrolidin-2-yl)methoxy)quinazolin-7-yl)-4-methylaniline]
[1]
  IC50: 10 to 100 µM
[2]
  IC50: 10 to 100 µM

## CN1CCC[C@H]1COc1nc(N2C[C@H]3CC[C@@H](C2)N3)c2ccc(-c3cc4ccccc4s3)cc2n1 [P-0153, 7-(benzo[b]thiophen-2-yl)-4-((1R,5S)-3,8-diazabicyclo[3.2.1]octan-3-yl)-2-(((S)-1-methylpyrrolidin-2-yl)methoxy)quinazoline]
[1]
  IC50: 10 to 100 µM
[2]
  IC50: 100 to 1000 µM

## CN1CCC[C@H]1COc1nc(N2C[C@H]3CC[C@@H](C2)N3)c2ccc(-c3csc4ccccc34)cc2n1 [P-0154, 7-(benzo[b]thiophen-3-yl)-4-((1R,5S)-3,8-diazabicyclo[3.2.1]octan-3-yl)-2-(((S)-1-methylpyrrolidin-2-yl)methoxy)quinazoline]
[1]
  IC50: 10 to 100 µM
[2]
  IC50: 10 to 100 µM

## Cc1cc2cn[nH]c2cc1-c1ccc2c(N3C[C@H]4CC[C@@H](C3)N4)nc(OCC3CCCN3C)nc2c1 (stereo partly drawn) [P-0155, 4-((1R,5S)-3,8-diazabicyclo[3.2.1]octan-3-yl)-7-(5-methyl-1H-indazol-6-yl)-2-((1-methylpyrrolidin-2-yl)methoxy)quinazoline]
[1]
  IC50: 100 to 1000 µM
[2]
  IC50: 10 to 100 µM

## CC(=O)Nc1cccc(-c2ccc3c(N4C[C@H]5CC[C@@H](C4)N5)nc(OCC4CCCN4C)nc3c2)c1 (stereo partly drawn) [P-0156, N-(3-(4-((1R,5S)-3,8-diazabicyclo[3.2.1]octan-3-yl)-2-((1-methylpyrrolidin-2-yl)methoxy)quinazolin-7-yl)phenyl)acetamide]
[1]
  IC50: 100 to 1000 µM
[2]
  IC50: 100 to 1000 µM

## CN1CCC[C@H]1COc1nc(N2C[C@H]3CC[C@@H](C2)N3)c2ccc(-c3cc(N)c(Cl)cc3Cl)cc2n1 [P-0157, 5-(4-((1R,5S)-3,8-diazabicyclo[3.2.1]octan-3-yl)-2-(((S)-1-methylpyrrolidin-2-yl)methoxy)quinazolin-7-yl)-2,4-dichloroaniline]
[1]
  IC50: 10 to 100 µM
[2]
  IC50: 100 to 1000 µM

## CN1CCC[C@H]1COc1nc(N2C[C@H]3CC[C@@H](C2)N3)c2ccc(-c3cc(N)cc(F)c3F)cc2n1 [P-0158, 3-(4-((1R,5S)-3,8-diazabicyclo[3.2.1]octan-3-yl)-2-(((S)-1-methylpyrrolidin-2-yl)methoxy)quinazolin-7-yl)-4,5-difluoroaniline]
[1]
  IC50: 10 to 100 µM
[2]
  IC50: 10 to 100 µM

## CN1CCC[C@H]1COc1nc(N2C[C@H]3CC[C@@H](C2)N3)c2ccc(-c3ccc4c(c3)NC(=O)CO4)cc2n1 [P-0159, 6-(4-((1R,5S)-3,8-diazabicyclo[3.2.1]octan-3-yl)-2-(((S)-1-methylpyrrolidin-2-yl)methoxy)quinazolin-7-yl)-2H-benzo[b][1,4]oxazin-3(4H)-one]
[1]
  IC50: 100 to 1000 µM
[2]
  IC50: 100 to 1000 µM

## CC(=O)Nc1cncc(-c2ccc3c(N4C[C@H]5CC[C@@H](C4)N5)nc(OC[C@@H]4CCCN4C)nc3c2)c1 [P-0160, N-(5-(4-((1R,5S)-3,8-diazabicyclo[3.2.1]octan-3-yl)-2-(((S)-1-methylpyrrolidin-2-yl)methoxy)quinazolin-7-yl)pyridin-3-yl)acetamide]
[1]
  IC50: 100 to 1000 µM
[2]
  IC50: 100 to 1000 µM

## Cc1ccc2[nH]ncc2c1-c1ccc2c(N3C[C@H]4CC[C@@H](C3)N4)nc(OC[C@@H]3CCCN3C)nc2c1 [P-0161, 4-((1R,5S)-3,8-diazabicyclo[3.2.1]octan-3-yl)-7-(5-methyl-1H-indazol-4-yl)-2-(((S)-1-methylpyrrolidin-2-yl)methoxy)quinazoline]
[1]
  IC50: 0.0001 to 10 µM
[2]
  IC50: 100 to 1000 µM

## CN1CCC[C@H]1COc1nc(N2C[C@H]3CC[C@@H](C2)N3)c2ccc(-c3ccc4cn[nH]c4c3)cc2n1 [P-0162, 4-((1R,5S)-3,8-diazabicyclo[3.2.1]octan-3-yl)-7-(1H-indazol-6-yl)-2-(((S)-1-methylpyrrolidin-2-yl)methoxy)quinazoline]
[1]
  IC50: 100 to 1000 µM
[2]
  IC50: 100 to 1000 µM

## Cc1nc2cc(-c3ccc4c(N5C[C@H]6CC[C@@H](C5)N6)nc(OC[C@@H]5CCCN5C)nc4c3)ccc2[nH]1 [P-0163, 4-((1R,5S)-3,8-diazabicyclo[3.2.1]octan-3-yl)-7-(2-methyl-1H-benzo[d]imidazol-5-yl)-2-(((S)-1-methylpyrrolidin-2-yl)methoxy)quinazoline]
[1]
  IC50: 100 to 1000 µM
[2]
  IC50: 100 to 1000 µM

## CN1CCC[C@H]1COc1nc(N2C[C@H]3CC[C@@H](C2)N3)c2ccc(-c3c(F)ccc(O)c3F)cc2n1 [P-0164, 3-(4-((1R,5S)-3,8-diazabicyclo[3.2.1]octan-3-yl)-2-(((S)-1-methylpyrrolidin-2-yl)methoxy)quinazolin-7-yl)-2,4-difluorophenol]
[1]
  IC50: 10 to 100 µM
[2]
  IC50: 100 to 1000 µM

## CN1CCC[C@H]1COc1nc(N2C[C@H]3CC[C@@H](C2)N3)c2ccc(-c3c(O)cccc3F)cc2n1 [P-0165, 2-(4-((1R,5S)-3,8-diazabicyclo[3.2.1]octan-3-yl)-2-(((S)-1-methylpyrrolidin-2-yl)methoxy)quinazolin-7-yl)-3-fluorophenol]
[1]
  IC50: 10 to 100 µM
[2]
  IC50: 10 to 100 µM

## CN1CCC[C@H]1COc1nc(N2C[C@H]3CC[C@@H](C2)N3)c2ccc(-c3cc(Cl)ccc3O)cc2n1 [P-0166, 2-(4-((1R,5S)-3,8-diazabicyclo[3.2.1]octan-3-yl)-2-(((S)-1-methylpyrrolidin-2-yl)methoxy)quinazolin-7-yl)-4-chlorophenol]
[1]
  IC50: 100 to 1000 µM
[2]
  IC50: 100 to 1000 µM
